According to patent publication US10723716B2, “Alpha-helix mimetics as modulators of Abeta self-assembly” (New York University, priority 2016, dated 2020):

How the values were obtained:
Assay type in all cases: biochemical
[1] = target: T1, Aβ40 (Homo sapiens, UniProt P05067); assay: Seed-catalyzed kinetic assay, Aβ40; settings: 20 μM Aβ40, 10% seeds, equimolar ratio
T1 construct: Cleavage of APP results in several Aβ isoforms; The predominant species are Aβ42 and Aβ40; purchased Anaspec (Fremont, Calif., USA)
T1 sequence (P05067 672-711 limits assumed): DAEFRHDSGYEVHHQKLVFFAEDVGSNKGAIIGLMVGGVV
Procedure: Seeds of Aβ40/Aβ42 were prepared by incubating 200 μM of Aβ40/Aβ42 in phosphate buffer at room temperature. The samples were aged for 48 h and the formation of fibers was confirmed by TEM and ThT before storage at −20° C. until use. For the aggregation of Aβ40, 10% (based on the monomeric Aβ40, v/v) seeds were added along with ThT in phosphate buffer to the 96-well plate. The aggregation was initiated by the addition of monomeric Aβ40 followed by gentle mixing. The process was similar in the case of Aβ42 except that the seed concentration was 5% (based on the monomeric Aβ42, v/v).
The seeds were generated by aging 200 μM Aβ peptides for 48 h in phosphate buffer with occasional vortexing. The concentration of seeds was calculated based on the monomeric concentration of Aβ.

[2] = target: T2, Aβ42 (Homo sapiens, UniProt P05067); assay: Circular dichroism (CD) spectroscopy of Aβ42; settings: 15 μM Aβ42, equimolar ratio, after 24 h
T2 construct: Cleavage of APP results in several Aβ isoforms; The predominant species are Aβ42 and Aβ40; purchased Anaspec (Fremont, Calif., USA)
T2 sequence (P05067 672-713 limits assumed): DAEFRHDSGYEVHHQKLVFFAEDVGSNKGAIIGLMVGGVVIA
Procedure: (§1) A freshly prepared stock solution of Aβ42 (500 μM) was diluted to 15 μM in phosphate buffer for CD measurements. The spectra of Aβ42 in the absence and presence of the compounds of the invention were recorded at 0.5 nm intervals from 190 to 260 nm with an averaging time of 10 sec. and an average of three repeats on a Aviv Stopped Flow CD Spectropolarimeter (Model 202SF).

[3] = target: T1, Aβ40; assay: Circular dichroism (CD) spectroscopy of Aβ40; settings: Aβ40, equimolar ratio
Procedure: A second set of compounds was identified as potent inhibitors of Aβ aggregation. In contrast to ADH-41, they are negatively charged. […] The absorbance increased gradually from 0 to 6 h indicating an increase in the amount of soluble oligomers of Aβ42. […] A time-dependent increase in the amount of the A11-sensitive Aβ42 oligomeric structures was reflected in the progressive enhancement in the chemiluminescence intensity of the dots, which reached a maximum intensity around 6 h (FIG. 27g). The intensity decreased after 12 h, due to formation of fibers that are not sensitive to the A11 antibody. […] The far UV-CD spectrum of a sample of 20 μM Aβ40 transitioned from that of a random coil to a β-sheet conformation over 24 h (FIG. 27h).
as §1

Compound | effect on seed-catalyzed Aβ40 fibrillation [1] | β-sheet formation of Aβ42 (far UV-CD) [2] | β-sheet formation of Aβ40 (far UV-CD) [3] | conformation of Aβ40 (far UV-CD) ([3]; stable after 48 h)
COC(=O)c1ccc(NC(=O)c2ccc(NC(=O)c3ccc([N+](=O)[O-])c(OCc4ccccc4)n3)c(OCCCN)n2)c(OCCCN)n1 [ADH-41] | completely arrested | No formation of β-sheet structure | – | –
COC(=O)c1ccc(NC(=O)c2ccc(NC(=O)c3ccc(NC(=O)c4ccc([N+](=O)[O-])c(OCC(C)C)n4)c(OCc4ccccc4)n3)c(OCC(=O)O)n2)c(OCC(=O)O)n1 [ADH-31] | – | – | no β-sheet formation was observed | adopts an α-helical conformation
